Data taken from patent US20180369186A1, “METHOD FOR MODULATING AUTOPHAGY AND APPLICATIONS THEREOF” (JAWAHARLAL NEHRU CENTRE FOR ADVANCED SCIENTIFIC RESEARCH, priority 2015, published 2018).

Experiments:
[1] = system: Salmonella typhimurium SL1344; assay: Growth curve of Salmonella typhimurium SL1344; format: cell-based; settings: Luria Broth, 10 hours
Description: A single colony of Salmonella typhimurium WT strain SL1344 grown overnight at 37° C. is diluted in Luria Broth media to get an O.D of 0.2. The diluted culture is used for treatments with Acacetin and Acacetin with gentamycin (100 μg/ml). The growth curve of the culture is obtained by measuring the absorbance at 600 nm using varioskan Flash Multiplate Spectrophotometer at 300 rpm and O.D taken at every 30 minutes interval for 10 hours is plotted using GraphPad Prism.

[2] = system: HeLa cells (autophagosomes and autolysosomes); assay: Tandem RFP-GFP-LC3B (traffic light) assay in HeLa cells; format: cell-based, human; settings: ptf-LC3 transfected HeLa; 2 hours
Description: Transfection is done on a 60 mm dish with HeLa cells at 60-70% confluency. Cells were transfected with tandem RFP-GFP-MAP1LC3B construct (Addgene plasmid #21074) using 5 μl of Lipofectamine 2000 (11668-019, Invitrogen) and 2.5 μg of DNA (2:1 ratio) diluted in 100 μl of OPTI-MEM (31985-070, Invitrogen) separately. 72 hours after transfection cells are either left untreated or treatment with various concentrations of Bay11-7082 ZPCK is done for 2 hours. Starvation is induced by treating cells with Earle's balanced salt solution (EBBS). After treatment, cells are fixed in 4% paraformaldehyde and permeabilized using 0.25% Triton X-100, The coverslip is mounted with […] antifade reagent (H-1000, Vector laboratories). Imaging for HeLa cells is carried out using Delta vision microscope (Olympus 60×/1.4, Plan ApoN, excitation and emission filter Cy5, FITC and TRITC, polychroic Quad).
For tandem RFP-EGFP-LC3 assay, sub-confluent cells are seeded in 60 mm dishes, transfected with ptf LC3 construct and allowed to express for 24 h. Later, cells are trypsinized, reseeded (10^5 cells) and allowed to attach on cover slips in a 12 well plate.
For mammalian cell microscopy, after 2 h of treatment, coverslips are fixed using 4% paraformaldehyde (PFA) (Sigma) and permeabilized using Triton X-100 (0.2%, HiMedia). Coverslips are mounted using antifade, Vectashield (Vector laboratories). For antibody staining, coverslips are blocked in 5% BSA for 1 h, incubated in primary antibody overnight and subsequent probing with fluorescent conjugated antibody. Coverslips are mounted using antifade, Vectashield (Vector laboratories).
Images are acquired using DeltaVisionElitewidefield microscope (API, GE) with following filters: DAPI (390/18 and 435/48), FITC (490/20 and 529/38), TRITC (542/27 and 594/45) and Cy5 (632/22 and 676/34). Images are processed using DV SoftWoRX software. Autophagosome (yellow) and autolysosome (red) are counted using Cell Counter plug-in in ImageJ software (NIH) and graphically represented as fold difference versus untreated (FIG. 3E).
Sub-confluent HeLa and/or SH-SY5Y cells are seeded into 60 mm cell culture dishes, then transfected with ptf LC3 construct and/or siRNA and allowed to express for 48 h. Cells are trypsinized, seeded again on poly-D-lysine coated cover slips in a 12 or 24 well plates and allowed to attach. After appropriate treatments, the coverslips containing cells are processed for imaging. For immunofluorescent antibody staining, the cover slips are incubated in primary antibody at 4° C. for overnight followed by secondary antibody incubation at room temperature.
For imaging the mammalian cells, after appropriate treatments, coverslips containing cells are fixed using 4% paraformaldehyde (PFA) (Sigma) and then permeabilized using Triton X-100 (0.2%, HiMedia). On slide, coverslips are mounted using antifade, Vectashield mounting medium (Vector laboratories). For antibody staining, coverslips are blocked using 5% BSA for 1 h at room temperature, then incubated with primary antibody at 4° C., overnight and then subsequently probed with corresponding fluorescent dye conjugated secondary antibody.

[3] = system: mcherry Salmonella typhimurium; assay: Co-localization of GFP-LC3 / p62 with mcherry Salmonella in HeLa cells; format: cell-based, human
Description: HeLa cells are transfected with GFP-LC3 using lipofectamine 3000. After 24 hours, cells are infected with Salmonella typhimurium WT strain SL1344 with an MOI of 400 for 15 minutes followed by gentamycin treatment at the concentration of 100 μg/ml for 10 minutes to kill the extracellular bacteria.
The cells are treated with and without Acacetin and incubated for different time points (1, 2, 4 and 6 hours) at 37° C. Quantitation of LC3 co-localization with Salmonella typhimurium SL1344 is done using ImageJ-Cell counter option (FIG. 14), to check whether with compound (Acacetin) treatment more autophagy machinery is recruited towards the bacteria.

[4] = system: Salmonella typhimurium SL1344; assay: Burden assay: intracellular Salmonella CFU in U1752 and HeLa cells; format: cell-based
Description: U1752 cell line and HeLa cell line are infected with Salmonella typhimurium SL1344, and grown overnight in micro-aerophilic condition, at an MOI of 400 for one hour. The cells are treated with media containing Gentamycin at the concentration of 100 μg/ml for 2 hours to kill the extracellular bacteria. The cells are then treated with compounds and incubated for ?hours to 4 hours. At the end, the cells are lysed using lysis buffer (0.1% SDS, 1% Triton X-100, 1× PBS) and the intercellular Salmonella is plated and the CFU is counted. The CFU of Salmonella in the Acacetin treated cells is reduced by almost 2 fold compared to that of the untreated cells. Statistical analysis of the results is done using Graphpad prism—two tailed T test (FIG. 12)

[5] = system: mcherry-Salmonella typhimurium SL1344; assay: Live cell microscopy of Salmonella replication in HeLa cells; format: cell-based; settings: GFP-LC3 transfected HeLa; vs untreated samples
Description: GFP-LC3 transfected HeLa cells is infected with mcherry-Salmonella typhimurium SL1344 for 15 minutes (MOI-400) and is treated with gentamycin for 10 minutes. The cells are then washed with 1× PBS and changed to either only media (a) and media containing Acacetin (b) and imaged by FV10i-olympus confocal live cell imaging microscope, using 60× water immersion lens, with confocality aperature set to 1.0. Images are taken at an interval of 15 minutes. (c) The intensity of the Red channel denoting the mcherry tagged S. typhimuriumis measured using image J—Stacks T function (intensity of red channel signifies the replication of the S. typhimurium over time). The replication of Salmonella in Acacetin treated samples is restricted as compared to that of untreated samples (FIG. 15)

Pot1-GFP (peroxisomes) = assay: Pot1-GFP pexophagy assay; format: cell-based, S. cerevisiae; settings: starvation medium; vs untreated cells
Description: Pot1-GFP positive strains are allowed to grow till the A600 reached 0.8-1 in YPD. Peroxisome biogenesis is induced by growing these cells in oleate medium (0.1% oleate, 0.5% Tween-40, 0.25% yeast extract, 0.5% peptone, and 5 mM phosphate buffer) for 12hours. Cells are harvested, washed twice to remove traces of oleate and transferred to starvation medium without nitrogen, at inoculum density A600 3, to induce pexophagy. Cells are collected at various time intervals after pexophagy induction and processed by TCA method.
Pot1-GFP positive strains are allowed to grow in yeast extract peptone dextrose (YPD) (2% dextrose, 2% peptone and 1% yeast extract) till the Absorbance at 600 nm reaches 0.6-0.8. Peroxisome biogenesis is induced by growing these cells in YPG medium (1% yeast extract, 2% peptone, 3% glycerol) for 12 hours.
Cells are harvested, washed twice to remove traces of oleate and transferred to starvation medium with and without Acacetin, at. inoculum density Absorbance at 600 nm 3/ml, to induce pexophagy. Cells are collected at various time intervals after pexophagy induction and processed by TCA precipitation.

How did the “anti-microbial activity against Salmonella typhimurium SL1344” value [1] turn out when `COc1ccc(-c2cc(=O)c3c(O)cc(O)cc3o2)cc1` [Acacetin, 5,7-dihydroxy-2-(4-methoxyphenyl)chromen-4-one] was run?
Its value is “does not have any anti-microbial activity”.

And the “number of autolysosomes (red dots)” value [2]?
The value was “increase in the number of autolysosomes”.

What about the “temporal recruitment of LC3 to mcherry Salmonella typhimurium” value [3] of the same molecule?
The value was “increases temporal recruitment of LC3”.

And the “temporal recruitment of p62 to mcherry Salmonella typhimurium” value [3]?
The value was “increased temporal recruitment of p62”.

What about the “functionality in Atg5 KO HeLa cell line” value ([4]; Atg5 KO HeLa) of the same molecule?
Its value is “non-functionality”.

And the “reduction of CFU of intracellular Salmonella vs untreated” value ([4]; U1752 and HeLa cell lines, MOI 400)?
The value was ~2 fold.

What about the “replication of Salmonella (red channel intensity)” value [5] of the same molecule?
Its value is “restricted”.

What about the “accumulation of free GFP over time (pexophagy)” value (Pot1-GFP (peroxisomes)) of the same molecule?
The value was “enhanced accumulation of free GFP”.
